In US20250205162A1, “SYSTEMS AND METHODS FOR SMALL MOLECULE ENCAPSULATION” (Tecton Group, LLC, priority 2022, published 2025):

Columns and labels:
pH in water = format: physicochemical; details: aqueous solution
[1] = humans; cited from earlier work

Row | Compound | pH in water (pH in water) | safe daily use [1]
1 | C[C@@H](O)CC(=O)OC(CO)CO [KM, 1,3 Dihydroxypropan-2-yl (R)-3-hydroxybutanoate] | 4.5 | 
2 | Cn1c(=O)c2c(n(C)c1=O)n(C)c(=O)n2C [TH, theacrine] |  | up to 300 mg/day
3 | nicotinamide riboside [NR] | 4.0 | 
